For 94 molecules, logD results are on record in the SangsterLogP compilation.

Assay in the first data set: not given
Particulars: pH 5.0.
In general, logD refers to lipophilicity at a set pH, counting ionised and neutral species. Read a high logD as a more lipophilic compound. Regarding `Cc1noc(C)c1C(=O)O[C@@H](C)C(=O)Nc1ccc2c(c1)OCCO2`, the pH-dependent lipophilicity (logD) amounted to 2.78.

`CC(=O)c1cccc(N2C(=O)[C@@H]3[C@H](C2=O)[C@@H]2C=C[C@H]3C2=C(c2ccc(C)cc2)c2ccc(C)cc2)c1`: the logD was 6.25.

The molecule `COc1ccc([C@@H]2[C@H](C(=O)N3CCCCCC3)c3ccccc3C(=O)N2Cc2ccc(F)cc2)cc1` gave a pH-dependent lipophilicity (logD) of 5.01.

Regarding `CCOC(=O)c1c(N2C(=O)[C@@H]3CC(C)=C(C)C[C@H]3C2=O)sc(C)c1C`, the logD is 4.56.

Still in this data set, the particulars now being: pH 6.5.
`O=C(c1ccc(Cl)cc1)N(Cc1ccc(Cl)c(Cl)c1)N1C(=O)[C@@H]2CCCC[C@H]2C1=O` registered a log distribution coefficient (logD) of 5.51.

In turn, `COC(=O)c1ccc(C(=O)OC)c(NC(=O)CSc2ncnc3sc4c(c23)CC[C@@H](C)C4)c1` returned a pH-dependent lipophilicity (logD) of 5.79.

The next data set in a line: method code SF, from DOI: 10.1016/j.ejps.2012.10.019, PMID: 23131797. Particulars: pH 2.0.
Turning to `Cc1ccc(OCCC(=O)N2CCN(S(=O)(=O)c3cccs3)CC2)cc1`, the logD worked out at 2.98.

For the molecule `CCN(C(=O)C(=O)c1cn(CC(=O)N2CCOCC2)c2ccccc12)c1ccccc1`, the logD is 2.05.

In turn, `COc1cccc(-n2c(SCc3cc(=O)n4ccsc4n3)nc3ccccc3c2=O)c1` displayed a logD of 3.56.

Consider `Cc1c(NC(=O)CC(c2ccccc2)c2ccccc2)cccc1-n1cnnn1`, for which the logD amounted to 3.2.

In turn, `Cc1[nH]c2ccccc2c1C1=CN2CCS(=O)(=O)N=C2S1` returned a log distribution coefficient (logD) of 1.56.

Still in this data set, the particulars now being: pH 5.0.
Take `C#Cc1cccc(NC(=O)c2cc(C(=O)Nc3cccc(C#C)c3)cc(N3C(=O)c4ccccc4C3=O)c2)c1`: the logD came out at 6.85.

In the case of `O=C(Nc1ccc(S(=O)(=O)c2ccc(NC(=O)c3cccs3)cc2)cc1)c1cccs1`, the logD came out at 4.46.

As for `CCCCC(=O)NC1C2CC3CC(C2)CC1C3` (centres undefined), the logD came out at 3.8.

The molecule `CCc1ccc(-n2nnnc2SCC(=O)Nc2ccc(C(C)=O)cc2)cc1` yielded a logD of 4.69.

Take `O=C(COC(=O)c1cccc(N2C(=O)c3ccccc3C2=O)c1)c1ccc(F)cc1`: the logD was found to be 4.68.

As for `N#CCc1nc(-c2ccc3c(c2)OCCO3)cs1`, the logD amounted to 2.92.

The molecule `Cc1ccc(S(=O)(=O)N(CCO)Cc2ccccc2)cc1` yielded a logD of 3.69.

Consider `CCCN(CC1CC1)C(=S)Nc1cc([N+](=O)[O-])ccc1Cl`, for which the logD was 4.1.

With `Cn1ncc(Br)c1C(=O)N1CCCCCC1`, the logD amounted to 2.63.

Take `c1ccc2c(c1)OCCOCCOCCO2`: the log distribution coefficient (logD) amounted to 1.81.

Turning to `CC1(C)OC(=O)C(=Cc2ccc([N+](=O)[O-])s2)C(=O)O1`, the logD amounted to 3.04.

`CCOC(=O)c1ccc(NCc2c(C)[nH]c(C(=O)OCC)c2C)cc1` registered a log distribution coefficient (logD) of 5.09.

The molecule `COc1cccc2c1N(C(=O)CC(C)C)C(C)(C)c1ssc(=S)c1-2` had a logD of 5.09.

In turn, `CCc1nc2sc(C#N)c(N)n2c(=O)c1C#N` gave a logD of 2.09.

As for `Cn1ncc(Cl)c1-c1nc(-c2nonc2N)no1`, the logD came to 2.77.

In the case of `CC(=O)NCCc1ccc(S(=O)(=O)N2CCOCC2)cc1`, the log distribution coefficient (logD) was 2.

In turn, `O=C(NCCc1ccccc1)c1ccc(Cl)cc1` returned a logD of 3.71.

`COc1ccc(C(=O)Nc2cccc(F)c2)cc1S(=O)(=O)N1CCOCC1` registered a logD of 3.64. The logD values of the last two molecules are within 0.2 log units of each other.

Take `COc1cc2c(cc1OC)CN(C(=O)c1cccc(S(=O)(=O)N3CCCCC3)c1)CC2`: the pH-dependent lipophilicity (logD) amounted to 4.2.

As to `CSc1sc(C(=O)N2CCOCC2)c2c1S(=O)(=O)N(C)c1ccccc1-2`, the log distribution coefficient (logD) came to 3.11.

Turning to `O=C(COC(=O)c1cccc(S(=O)(=O)N2CCc3ccccc32)c1)Nc1ccc(F)c(F)c1F`, the logD was 5.31.

The molecule `Cc1cccc(C)c1NC(=O)CSc1nnnn1-c1ccc(OC(F)(F)F)cc1` had a logD of 4.82.

In turn, `CCCCOc1ccc(C(=O)Oc2ccc3c(c2)OCO3)cc1OC` registered a log distribution coefficient (logD) of 4.77.

Regarding `O=C1c2ccccc2C(=O)N1c1ccccc1S(=O)C(F)(F)F` (centres undefined), the pH-dependent lipophilicity (logD) is 3.3.

Turning to `COc1ccc2c(C)c(C)c(=O)oc2c1C`, the pH-dependent lipophilicity (logD) was found to be 3.45.

The molecule `O=C(CSCc1ccccc1)Nc1ccc(-c2ccc([N+](=O)[O-])cc2)cc1` showed a log distribution coefficient (logD) of 5.38.

`Cc1ccc(-n2c(=O)c3cc4c(=O)n(-c5ccc(C)c(C)c5)c(=O)c4cc3c2=O)cc1C` gave a pH-dependent lipophilicity (logD) of 4.83.

In turn, `CC(=O)Nc1cccc(C(=O)OCC(=O)c2c(N)n(C)c(=O)n(C)c2=O)c1` returned a log distribution coefficient (logD) of 3.57.

As to `COC(=O)c1cc(C(=O)OCC(=O)c2[nH]c(C)c(C(C)=O)c2C)cc([N+](=O)[O-])c1`, the log distribution coefficient (logD) worked out at 3.82.

For the molecule `COc1ccc(C)cc1-n1nnnc1SCC(=O)Nc1cc(C(N)=O)cc(C(N)=O)c1`, the logD worked out at 4.15.

In turn, `N#Cc1c(SCC(=O)OCc2ccccc2)nsc1SCC(=O)OCc1ccccc1` had a logD of 5.6.

`O=C(Cn1cc(C(F)(F)F)cc(Cl)c1=O)N1CCN(C(=O)c2ccco2)CC1` yielded a pH-dependent lipophilicity (logD) of 2.27.

The molecule `CCOC(=O)C1=C(Nc2ccc(OC(=O)Nc3ccc(OC(F)(F)F)cc3)cc2)C(=O)N(C(C)(C)C)C1` showed a logD of 6.72.

Molecule `CCCn1c(=O)c(Br)cn(-c2ccccc2C)c1=O` returned a log distribution coefficient (logD) of 2.82.

`COC(=O)c1ccc(C)c(NC(=O)Cc2coc3cc4c(cc23)CCC4)c1` showed a logD of 4.78.

With `CN(C)S(=O)(=O)c1ccc(C(=O)OC2CCCCC2)cc1`, the pH-dependent lipophilicity (logD) is 4.27.

The molecule `COc1ccc(OCC(=O)N2CCN(C(=O)c3ccco3)CC2)cc1` displayed a logD of 2.76.

`CCOc1cc(C#N)c(NC(=O)c2cc(S(=O)(=O)N3CCOCC3)c(Cl)cc2Cl)cc1OCC` yielded a logD of 4.31.

`CCCCCC(=O)NC1(CCC)CCCC1` displayed a logD of 4.28.

`c1ccc(-n2nnnc2OCCOc2nnnn2-c2ccccc2)cc1`: the log distribution coefficient (logD) amounted to 3.72.

On to `N#Cc1nc2c(S(=O)(=O)c3ccccc3)c(N)n(Cc3ccc(F)cc3)c2nc1C#N`, for which the logD stood at 4.86.

Turning to `CSc1nc2c(C#N)c(SC)nn2c(-c2ccc(Cl)cc2)c1C#N`, the logD was determined as 5.51.

For the molecule `O=C(OCC(=O)N(C1CCCCC1)C1CCCCC1)c1ccc(Cl)nc1`, the logD came to 4.99.

Regarding `COc1cc(C(=O)Nc2cccc(C#N)c2)cc(OC)c1OC`, the logD amounted to 3.44.

In the case of `COc1ccc(CNC(=O)C2CCCC2)cc1`, the log distribution coefficient (logD) amounted to 2.6.

`COC(=O)/C=C/CN1C(=O)c2ccccc2C1=O` gave a log distribution coefficient (logD) of 2.46.

The molecule `COc1ccc(S(=O)(=O)n2c(=O)n(S(=O)(=O)c3ccc(OC)cc3)c3ccccc32)cc1` displayed a logD of 5.22.

`COC(=O)c1ccc(-n2c(C)cc(C(=O)COc3cccc(-n4cnnn4)c3)c2C)cc1`: the logD was 4.77.

Regarding `COCCCNC(=O)c1ccccc1C(F)(F)F`, the logD turned out to be 2.

Still in this data set, the particulars now being: pH 6.5.
With `N#CC(=Cc1ccc2c(c1)OCO2)C(=O)NCc1cccc(CNC(=O)C(C#N)=Cc2ccc3c(c2)OCO3)c1`, the logD is 4.92.

`O=C(CSc1nc2ccccc2c(=O)n1-c1ccc(Cl)cc1)NC1CCCCC1`: the log distribution coefficient (logD) came to 4.92.

`CCOc1ccc(CC(=O)C2=C(N3CCCC3)CCCC2=O)cc1OCC` displayed a log distribution coefficient (logD) of 3.3.

Turning to `CCCn1c(SCc2cc(=O)n3cc(Br)ccc3n2)nnc1-c1cccc(C)c1`, the logD came out at 4.43.

`CN1C(=CC=CC(=O)C(F)(F)F)C(C)(C)c2ccccc21` registered a logD of 4.41.

With `O=C(CSc1nnc2c3ccccc3n(Cc3ccccc3)c2n1)OCN1C(=O)c2ccccc2C1=O`, the logD worked out at 4.51.

As for `N#CC1=C(N)Oc2c(oc(CO)cc2=O)C1c1ccccc1OCc1ccccc1Cl` (centres undefined), the logD came to 4.34.

In turn, `O=C(Nc1ccc(N2CCN(C(=O)c3ccco3)CC2)c(Cl)c1)c1c(F)c(F)c(F)c(F)c1F` showed a log distribution coefficient (logD) of 5.85.

Still in this data set, the particulars now being: pH 7.0.
Turning to `NNc1c(F)c(F)nc(F)c1F`, the logD is 0.86.

The data set is the same for the next values; noted with them: pH 7.3.
For the molecule `COc1cccc(OC)c1C(=O)Nc1ccc(N2CCN(C(=O)c3ccccc3C)CC2)cc1`, the logD was 4.16.

On to `O=C(c1nn(-c2ccccc2)c(=O)c2ccccc12)N1CCOCC1`, for which the pH-dependent lipophilicity (logD) turned out to be 2.47.

As to `O=C(CSc1ncnc2sc3c(c12)CCC3)Nc1ccc(F)cc1`, the log distribution coefficient (logD) turned out to be 4.69.

The molecule `CC(C)N(C(=O)CSc1nnc(NCc2ccccc2)s1)C(C)C` had a log distribution coefficient (logD) of 4.09.

For `CCOC(=O)c1c(NC(=O)CSc2nnc(C)s2)sc2c1CCCCC2`, the logD stood at 5.03.

Molecule `Cc1nc(-c2ccc(Cl)cc2)cs1` registered a logD of 3.65.

With `CCN1C(=O)c2cccc3c(S(=O)(=O)N(C(=O)c4cccnc4)c4ccc(OC)cc4)ccc1c23`, the pH-dependent lipophilicity (logD) worked out at 4.74.

`O=C(c1ccccc1)c1ccc(N2CCN(C(=O)c3c(F)cccc3F)CC2)c(F)c1` gave a logD of 5.14.

Molecule `Cc1cccc(NC(=O)CSc2ccccn2)c1C` came in with a pH-dependent lipophilicity (logD) of 3.19.

The data set is the same for the next values; noted with them: pH 10.0.
In turn, `CCOC(=O)C1=C(C)NC(C)=C(C(=O)OC)C1c1ccco1` (centres undefined) yielded a logD of 3.67.

With `Cc1cc(C)c(NC(=O)CSc2nnc(-c3ccc(OC(F)F)cc3)n2N)c(C)c1`, the logD turned out to be 4.41.

Regarding `Cc1cc(C(F)(F)F)n2nc(-c3nnc(-c4cccc(C(F)(F)F)c4)o3)cc2n1`, the log distribution coefficient (logD) is 4.92.

As to `CC1CN(c2nc3ccccn3c(=O)c2C=C(C#N)C#N)CC(C)O1` (centres undefined), the logD turned out to be 3.24.

The molecule `Nc1ccccc1Nc1ccccc1` had a logD of 2.67.

Staying with this data set, now noted: pH 10.5.
In turn, `CCCNC(=O)N1CCN(C(=O)NCCC)CC1` came in with a logD of 1.04.

Turning to `CCOC(=O)c1sc(NCCNc2nc(C)c(C(=O)OCC)s2)nc1C`, the log distribution coefficient (logD) was determined as 4.66.

For `CCNc1nc(NC(C)C)nc(Oc2ccc(OCC)nn2)n1`, the pH-dependent lipophilicity (logD) is 3.14.

In the case of `COC(=O)CCNc1nc(-c2cccnc2)nc2sc3c(c12)CCCC3`, the logD was 4.69.

For the molecule `Cc1nnc2c(=O)n(CCNc3ncc(C(F)(F)F)cc3Cl)c3ccc(Cl)cc3n12`, the logD was found to be 4.57. The logD values of the last two molecules are within 0.2 log units of each other.

The molecule `CCN(CC)c1ccc(C=C2C(=O)c3ccccc3C2=O)c(OC)c1` registered a logD of 5.05.

On to `CCOc1cc(-c2nnc(-c3ccco3)o2)cc(OCC)c1OCC`, for which the logD is 3.96.

`CCn1cc(C2C3=C(CC(C)(C)CC3=O)N(c3ccc(C)cc3)C3=C2C(=O)CC(C)(C)C3)c(C)n1` came in with a log distribution coefficient (logD) of 5.35.

`O=C(c1cc2ccccc2s1)N1CCCN(c2ccc(C(F)(F)F)cn2)CC1` gave a logD of 4.92.

For the molecule `COc1cc(C2C(C#N)=C(N)Oc3cc(C)[nH]c(=O)c32)cc(OC)c1OC` (centres undefined), the logD is 2.55.

Molecule `CN(C)c1nc(N)nc(COC(=O)c2ccc(-n3cnnc3)cc2)n1` registered a pH-dependent lipophilicity (logD) of 2.74.
